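Where inhibition never reached the appropriate level, the endpoint shown equals the highest concentration tested. Otherwise, values were interpolated linearly from a five-concentration, 48-hour dose response in 96-well plates. GI50: concentration for 50% inhibition of growth.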 The source made the active and inactive calls. Cut-off read from the data, not from the text of the source: active = GI50 up to about 1.1 µM and inactive = higher.
Experiments:
Experiment in all cases: NCI anticancer screen, dose series, 48 h
HCC 2998 = test system: HCC 2998
HCT-116 = test system: HCT-116
LOX IMVI = test system: LOX IMVI
MCF7 = test system: MCF7
MDA-MB-435 = test system: MDA-MB-435
MDA-N = test system: MDA-N
NCI-H23 = test system: NCI-H23
NCI-H522 = test system: NCI-H522
NCI/ADR-RES = test system: NCI/ADR-RES
OVCAR-4 = test system: OVCAR-4
OVCAR-8 = test system: OVCAR-8
PC-3 = test system: PC-3
SF-295 = test system: SF-295
SF-539 = test system: SF-539
SK-MEL-28 = test system: SK-MEL-28
SNB-75 = test system: SNB-75
SR = test system: SR
UO-31 = test system: UO-31
M14 = test system: M14
T47D = test system: T47D

Measured: GI50

CCCc1c(O)nc2ccccc2c1O
inactive: HCC 2998 > 100 µM | HCT-116 > 100 µM | LOX IMVI > 100 µM | MCF7 > 100 µM | MDA-MB-435 > 100 µM | MDA-N > 100 µM | NCI-H23 > 100 µM | NCI-H522 > 100 µM | NCI/ADR-RES > 100 µM | OVCAR-4 > 100 µM | OVCAR-8 > 100 µM | PC-3 > 100 µM | SF-295 > 100 µM | SF-539 > 100 µM | SK-MEL-28 > 100 µM | SNB-75 > 100 µM | SR > 100 µM | UO-31 > 100 µM

Cn1c(=O)cc(N2CCCC2)[nH]c1=O
inactive: HCC 2998 > 100 µM | HCT-116 > 100 µM | LOX IMVI > 100 µM | M14 > 100 µM | MCF7 > 100 µM | MDA-MB-435 > 100 µM | NCI-H23 > 100 µM | NCI-H522 > 100 µM | NCI/ADR-RES > 100 µM | OVCAR-4 > 100 µM | OVCAR-8 > 100 µM | PC-3 > 100 µM | SF-295 > 100 µM | SF-539 > 100 µM | SK-MEL-28 > 100 µM | SNB-75 > 100 µM | SR > 100 µM

CCCCCCCC1(N=[N+]=[N-])C(=O)c2ccccc2N(C)C1=O (stereo unspecified)
inactive: HCC 2998 > 100 µM | HCT-116 61 µM | LOX IMVI 97.1 µM | M14 > 100 µM | MCF7 > 100 µM | MDA-MB-435 89.9 µM | NCI-H23 48 µM | NCI-H522 64.9 µM | NCI/ADR-RES 35.6 µM | OVCAR-4 87.3 µM | OVCAR-8 86.5 µM | PC-3 > 100 µM | SF-295 > 100 µM | SF-539 > 100 µM | SK-MEL-28 > 100 µM | SNB-75 > 100 µM | SR > 100 µM | T47D 68.9 µM

O=C1/C(=C/c2cccs2)NC(=S)N1CN1CCOCC1
inactive: HCT-116 > 100 µM | LOX IMVI > 100 µM | M14 > 100 µM | MCF7 > 100 µM | MDA-MB-435 > 100 µM | MDA-N > 100 µM | NCI-H23 > 100 µM | NCI/ADR-RES > 100 µM | OVCAR-8 > 100 µM | PC-3 > 100 µM | SF-295 > 100 µM | SK-MEL-28 > 100 µM | SNB-75 > 100 µM | SR > 100 µM | UO-31 > 100 µM

NN/C(=N\c1ccc(Cl)cc1)NS(=O)(=O)c1ccc(S(=O)(=O)c2ccccc2)s1
inactive: HCT-116 14.8 µM | LOX IMVI 15.3 µM | M14 15.8 µM | MCF7 22.2 µM | MDA-N 13.7 µM | NCI-H23 20.4 µM | NCI/ADR-RES 18.5 µM | OVCAR-4 21.1 µM | OVCAR-8 30.3 µM | PC-3 25.5 µM | SF-295 8.79 µM | SF-539 39.4 µM | SK-MEL-28 46.7 µM | SR 16 µM | T47D 8.17 µM | UO-31 23.7 µM

CCC(CN(C)C)C(=O)c1ccco1 (stereo unspecified)
inactive: HCC 2998 > 100 µM | HCT-116 > 100 µM | LOX IMVI > 100 µM | M14 > 100 µM | MCF7 47.9 µM | MDA-MB-435 > 100 µM | NCI-H23 > 100 µM | NCI-H522 14.5 µM | NCI/ADR-RES > 100 µM | OVCAR-4 > 100 µM | OVCAR-8 > 100 µM | PC-3 > 100 µM | SF-295 > 100 µM | SK-MEL-28 > 100 µM | SNB-75 > 100 µM | SR > 100 µM | T47D > 100 µM | UO-31 > 100 µM

O=C1c2ccccc2C(=O)C2NC(CCCCCSSCCCCCC3=NC4C(=O)c5ccccc5C(=O)C4N3)=NC12 (stereo unspecified)
inactive: HCT-116 14.8 µM | LOX IMVI > 100 µM | M14 4.57 µM | MCF7 > 100 µM | MDA-MB-435 > 100 µM | NCI-H23 40.2 µM | NCI-H522 15 µM | NCI/ADR-RES > 100 µM | OVCAR-4 > 100 µM | OVCAR-8 45.2 µM | PC-3 > 100 µM | SF-295 4.57 µM | SF-539 24.3 µM | SK-MEL-28 > 100 µM | SR 1.48 µM | T47D > 100 µM | UO-31 7.74 µM

CCC(C)[C@H](NC(=O)N[C@H](C)c1ccccc1)C(=O)OC (stereo partly specified)
inactive: HCC 2998 > 100 µM | HCT-116 > 100 µM | LOX IMVI > 100 µM | M14 > 100 µM | MCF7 > 100 µM | MDA-MB-435 > 100 µM | MDA-N > 100 µM | NCI-H23 > 100 µM | OVCAR-4 > 100 µM | OVCAR-8 > 100 µM | PC-3 > 100 µM | SF-295 > 100 µM | SF-539 25.8 µM | SK-MEL-28 > 100 µM | SNB-75 > 100 µM | SR > 100 µM | UO-31 > 100 µM

— ChEMBL document CHEMBL1201862, “PubChem BioAssay data set” (2004)
